Measured values: patent US20240307283A1, “COMPOSITIONS AND METHODS FOR DECREASING PIGMENTATION” (The General Hospital Corporation, priority 2021, published 2024)

Legend:
human skin = test: UVB-induced DNA damage (CPD, γ-H2AX) in human skin; assay type: cell-based; conditions: 50 mM for 5 days
Method: Skin samples considered surgical waste were obtained de-identified from healthy donors (IRB #2013P000093) undergoing reconstructive surgery, according to institutional regulations. Full thickness human abdominal skin explants were cultured in petri dishes with a solid phase and liquid phase phenol red free DMEM medium containing 20% penicillin/streptomycin/glutamine, 5% fungizone (Gibco), and 10% fetal bovine serum. Compounds were applied strictly on top of the explants, making sure no drip occurred into the underlying media. For UV irradiation experiments, a UV lamp (UV Products) was used at 1000 mJ/cm^2 UVB. For immunofluorescence, paraffin sections were deparaffinized by xylene and rehydrated gradually with ethanol to distilled water. Sections were submerged in 0.01 M citrate buffer and boiled for 10 min for retrieval of antigen. The sections were washed with TBST (0.1% Tween 20) and blocked with protein blocking solution (Agilent, #X090930-2) for 1 h at room temperature before application of primary antibody [1:100 diluted in Antibody Diluent (DAKO, #S3022)] and incubation overnight at 4° C. The following day, sections were washed with TBST three times and incubated with secondary antibody Alexa Fluor 647 goat anti-mouse IgG (G+L) (ThermoFisher Scientific, #A-21236), Alexa Fluor 594 F(ab)2 fragment of goat anti-rabbit IgG (G+L) (ThermoFisher Scientific, #A-11072), or Alexa Fluor 555 goat anti-rabbit IgG (ThermoFisher Scientific, #A-21428). After washing, the tissue sections were cover-slipped with mounting medium (SlowFade® Gold Antifade Reagent with DAPI, ThermoFisher Scientific, #S36939). MaxBlock Autofluorescence Reducing Reagent Kit (MaxVision Biosciences, #MB-L) was used to quench skin tissue autofluorescence according to the reagent instructions. […]

[1] = system: Zebrafish overexpressing NNT (NNT OE); test: 2,3BD treatment of zebrafish overexpressing NNT; assay type: in vivo; conditions: 100 μM for 24 hours, FIG. 11C
Method: The human NNT gene was cloned into the MiniCoopR expression plasmid to allow melanocyte-specific overexpression of NNT (Ceol et al., 2011). The mcr:NNT plasmid was injected into Tubingen zebrafish embryos at the single cell stage and incorporated into the genome through the use of Tol2 transgenesis. Larvae were raised for 5 days and then at least three images were obtained and quantified using a Nikon SMZ18 Stereomicroscope. At least 5 zebrafish embryos of each group were analyzed after 5 days using the […] software enabling pixel-based color quantification. Wildtype Tübingen zebrafish were placed in a 24 well plate at 72 hours post-fertilization, with 10 larvae per well for a total twenty larvae per condition. Larvae were treated for 24 hours with either 2,3BD (1 μM, 10 μM, 100 μM, 1 mM; Sigma Aldrich, #B85307), DCC (1 μM, 10 μM, 50 μM, 100 μM; Sigma Aldrich, #D80002), or DMSO (1:500) in E3 embryo medium. At 4 days post fertilization, larvae were imaged using a Nikon SMZ18 Stereomicroscope. Melanocytes from at least 5 zebrafish embryos of each group for each experiment were analyzed using the FIJI software enabling pixel-based color quantification.

human skin explants = test: Pigmentation of human skin explants with topical NNT inhibitors
NNT = biological target: T1, NNT (Homo sapiens, UniProt Q13423); test: GSH/GSSG ratio (indirect endpoint of NNT enzyme activity) in primary melanocytes; assay type: cell-based; parameters: endogenous in cells; host or cells: primary human melanocytes (isolated from neonatal foreskins); conditions: different doses, 24 hours
T1 sequence (Q13423 44-1086): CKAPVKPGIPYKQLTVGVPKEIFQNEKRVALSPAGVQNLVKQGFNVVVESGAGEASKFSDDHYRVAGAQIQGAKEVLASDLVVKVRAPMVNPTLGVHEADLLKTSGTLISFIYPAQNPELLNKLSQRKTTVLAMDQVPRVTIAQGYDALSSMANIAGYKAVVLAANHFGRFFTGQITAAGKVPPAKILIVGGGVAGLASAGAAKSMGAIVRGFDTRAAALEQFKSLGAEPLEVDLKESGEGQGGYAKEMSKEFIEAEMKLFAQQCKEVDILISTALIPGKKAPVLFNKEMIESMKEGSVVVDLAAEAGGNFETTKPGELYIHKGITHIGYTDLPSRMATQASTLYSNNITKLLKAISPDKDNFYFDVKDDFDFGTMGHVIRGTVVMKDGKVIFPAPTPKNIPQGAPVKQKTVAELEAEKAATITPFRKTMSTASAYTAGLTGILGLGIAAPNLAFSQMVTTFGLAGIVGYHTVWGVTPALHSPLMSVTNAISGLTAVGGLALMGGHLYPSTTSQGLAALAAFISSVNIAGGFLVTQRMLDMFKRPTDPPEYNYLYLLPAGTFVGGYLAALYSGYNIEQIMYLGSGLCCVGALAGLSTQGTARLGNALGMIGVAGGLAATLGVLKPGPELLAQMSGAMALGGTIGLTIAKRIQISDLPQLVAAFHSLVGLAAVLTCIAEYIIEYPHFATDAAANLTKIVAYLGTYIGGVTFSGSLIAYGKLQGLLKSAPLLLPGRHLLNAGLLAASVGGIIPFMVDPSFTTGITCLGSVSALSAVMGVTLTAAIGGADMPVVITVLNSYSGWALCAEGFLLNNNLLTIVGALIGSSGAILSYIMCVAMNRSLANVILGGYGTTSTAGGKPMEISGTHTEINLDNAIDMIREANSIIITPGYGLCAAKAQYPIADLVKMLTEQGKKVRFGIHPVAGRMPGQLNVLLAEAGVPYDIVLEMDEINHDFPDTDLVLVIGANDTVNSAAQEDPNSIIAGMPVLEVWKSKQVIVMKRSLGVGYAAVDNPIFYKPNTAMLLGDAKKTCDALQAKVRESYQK
Method: Glutathione measurements: Cell lysates were prepared from equal numbers of cells after 24 h of DCC or 2,3BD treatment, following the manufacturer's protocols. Seventy-two h post siRNA treatment or overexpression of NNT and their corresponding controls, glutathione levels were determined using the GSH/GSSG-Glo assay (Promega, #V6611) and luminescence was measured using an EnVision 2104 Multilabel Reader (PerkinElmer).

CC(=O)C(C)=O [2,3BD, 2,3-Butanedione]
toxicity by γ-H2AX (human skin): non-toxic
UVB-induced CPD formation (human skin; skin type 2-3, then 1000 mJ/cm^2 UVB): protected against formation of UVB-induced CPD
UVB-induced γ-H2AX induction (human skin; then UVB): could protect human skin from UVB-induced γ-H2AX induction
melanocytic pigmentation of NNT overexpressing fish [1]: prevented the NNT OE-induced decrease in melanocytic pigmentation
melanin by Fontana-Masson staining (human skin explants; 2,3BD treated skin, FIGS. 3Ei and 10F): increased melanin
cell damage or inflammation by H&E staining (human skin explants; FIG. 3Eii): no obvious cell damage or inflammation
skin pigmentation (human skin explants; abdominal skin, phototype 1-2, single topical treatment 1M or 11M, after 5 days): strong induction of pigmentation
skin pigmentation (human skin explants; daily application of 50 mM, skin type 3-4, after 5 days): significantly increased pigmentation
GSH/GSSG ratio (NNT): decreased GSH/GSSG ratios
